Earlier results on 1 compound are cited in patent publication US7767228B2, “Pharmaceutical composition for oral application and method for preparing thereof” (Cum Pharma Consulting Anstalt, priority 2004, dated 2010).

Turning to `O=C(C1CCCCC1)N1CC(=O)N2CCc3ccccc3C2C1` (stereo not shown) [Praziquantel, praziquantel], the solubility in water result is recorded as “very low”.
